According to patent US12358863B2, “Nitrogen-containing derivative of substituted phenol hydroxy acid ester, and preparation and use thereof” (priority 2019, dated 2025):
Like-named read-outs stand apart in the source and are kept apart here.

How the values were obtained:
[1] = Decomposition of prodrugs in mouse plasma in vitro (HPLC of released propofol or other substituted phenol); type: in vitro ADME; details: 37° C.
Method: The prodrug to be tested was prepared into a saline solution of 10 mg/mL. 10 μL of drug-containing solution was added to 990 μL of mouse plasma, vortexed for 30 s, and then incubated at 37° C. At 30 s, 1 min, 5 min, 10 min, 30 min, 60 min and 120 min, 50 μL of drug-containing plasma was collected, to which was immediately added 150 μL of acetonitrile to terminate the enzymatic reaction, and then centrifuged at 20000 rpm and 4° C. for 10 min. 50 μL of supernatant was taken out and injected into HPLC, to determine the concentration of propofol by internal standard method. The decomposition rate of the prodrug was calculated from the concentrations of propofol or other substituted phenols. Chromatographic conditions: Agilent Zorbax XdB C18 column (150 mm)×4.6 mm, 5 μm); column temperature 30° C.; the mobile phase, water:acetonitrile (40:60, v/v); fluorescence wavelength: excitation wavelength (Ex) at 276 nm, emission wavelength (EM) at 310 nm; flow rate: 1.2 mL/min; retention time: internal standard (thymol) 3.9 min, propofol 7.4 min. Linear range of propofol or other substituted phenols: 50-35000 ng/mL. Instruments: Waters 2695 high performance liquid chromatograph, Waters 2475 fluorescence detector.

Kunming mice [2] = type: in vivo, mouse
Method: For each drug, 10 male Kunming mice weighing 20-35 g were included, and the dose of each drug was 2×ED50 in mice. After the compound of the present invention and fospropofol were respectively dissolved in saline, the resultant solutions were injected via the mouse tail vein. For propofol, a glucose dilution (5 mg/mL) of a commercially available emulsion of diprivan was selected and injected via the mouse tail vein; while, for another substituted phenol molecule (CAS:1637741-58-2), its 30% fat emulsion was prepared as a medicated emulsion. The concentration of the injectable solution of the compound according to the present invention was 10-15 mg/mL, and the concentration of the injectable solution of fospropofol was 55 mg/mL, while the concentration of the injectable solution of another substituted phenol molecule (CAS:1637741-58-2) was 1 mg/mL. After injection of tested drug, the occurrence time T1 of righting reflex after its disappearance, the duration T2 for the disappearance of righting reflex (i.e. anesthesia time) and the time T3 required for the animal to recover completely after waking up were recorded. Complete recovery refers to the recovery of autonomous activities of animals to the level before administration. In the experiment, animals were not given respiratory support such as oxygen inhalation or intubation.

Kunming mice [3] = assay: Determination of therapeutic index (ED50 and LD50, up-and-down method); type: in vivo, mouse; details: half male and half female
Method: Determination of therapeutic index (TI) of prodrug molecules: by referring the method in literature (Dixon, W. Staircase bioassay: the up-and-down method. Neurosci. Biobehav. Rev. 1991, 15, 47-50), the half-effective dose (ED50) and half-lethal dose (LD50) of the molecule to be tested were determined in Kunming mice (weighing 25-30 g, half male and half female). The therapeutic index for each molecule was calculated according to the equation: TI=LD50/ED50.

[4] = Table 3, dose 2×ED50, tail vein injection, male Kunming mice
[5] = Table 4 (other substituted phenols and prodrugs), dose 2×ED50, tail vein injection, male Kunming mice

| SMILES | Decomposition rates of prodrugs ([1]; 30 s) | Decomposition rates of prodrugs ([1]; 1 min) | Decomposition rates of prodrugs ([1]; 5 min) | Decomposition rates of prodrugs ([1]; 10 min) | Decomposition rates of prodrugs ([1]; 30 min) | Decomposition rates of prodrugs ([1]; 60 min) | Decomposition rates of prodrugs ([1]; 120 min) | T1: the onset time after injection (Kunming mice [2]; [4]) | T2: the duration of disappearance of righting reflex (Kunming mice [2]; [4]) | T3: the time required for righting reflex to recover to autonomous activity (Kunming mice [2]; [4]) | TI (therapeutic index) (Kunming mice [3]) | T1: the onset time after injection (Kunming mice [2]; mouse, in vivo) | T2: the duration of disappearance of righting reflex (Kunming mice [2]; mouse, in vivo) | T3: the time required for righting reflex to recover to autonomous activity (Kunming mice [2]; mouse, in vivo) | Decomposition rates of prodrugs ([1]; 120 min, listed as fopropofol) | T1: the onset time after injection (Kunming mice [2]; [5]) | T2: the duration of disappearance of righting reflex (Kunming mice [2]; [5]) | T3: the time required for righting reflex to recover to autonomous activity (Kunming mice [2]; [5]) |
| --- | --- | --- | --- | --- | --- | --- | --- | --- | --- | --- | --- | --- | --- | --- | --- | --- | --- | --- |
| CC(C)c1cccc(C(C)C)c1OC(=O)COC(=O)[C@@H](C)N(C)C.Cl [Compound 41] | 89% | 100% | 100% | 100% | 100% | 100% | 100% | Immediate | 5 to 13 min | 1 to 2 min | 3.8 |  |  |  |  |  |  |  |
| CC(C)c1cccc(C(C)C)c1OC(=O)COC(=O)CN(C)C [Compound 3] | 51% | 67% | 80% | 90% | 97% | 100% | 100% |  |  |  |  | Immediate | 5 to 10 min | 1 to 2 min |  |  |  |  |
| CC(C)c1cccc(C(C)C)c1OC(=O)COC(=O)CN1CCN(C)CC1 [Compound 7] | 91% | 100% | 100% | 100% | 100% | 100% | 100% |  |  | 1 to 2 min | 3.9 | Immediate | 6 to 13 min |  |  |  |  |  |
| CC(C)c1cccc(C(C)C)c1OCOP(=O)(O)O [Fospropofol, fospropofol, reference compound] |  |  |  | not decomposed significantly | 3% | 16% | 38% | 1.5 to 2 min | 28 to 45 min | 5 to 8 min | 2.9 |  |  |  | 38% |  |  |  |
| CC(C)c1cccc([C@@H](C)C2CC2)c1OC(=O)COC(=O)CN1CCCC1.Cl [Compound 55] |  |  |  |  |  |  |  |  |  |  |  |  |  |  |  | Immediate | 5 to 9 min | 1 to 2 min |
| CC(C)c1cccc(C(C)C)c1O [Propofol, reference compound] |  |  |  |  |  |  |  |  |  |  | 4.4 | Immediate | 5 to 11.5 min | 1 to 2 min |  |  |  |  |
| CC(C)c1cccc([C@H](C)C2CC2)c1O [(R)-2-cyclopropylethyl-6-isopropylphenol, reference compound] |  |  |  |  |  |  |  |  |  |  |  |  |  |  |  | Immediate | 5 to 8 min | 1 to 2 min |
| CNCC(=O)OCC(=O)Oc1c(C(C)C)cccc1C(C)C [Compound 2] | 87% | 98% | 100% | 100% | 100% | 100% | 100% |  |  |  |  | Immediate | 7 to 15 min | 1 to 2 min |  |  |  |  |
| CC(C)c1cccc(C(C)C)c1OC(=O)COC(=O)CN [Compound 1] | 97% | 100% | 100% | 100% | 100% | 100% | 100% |  |  |  |  | Immediate | 6 to 12 min | 1 to 2 min |  |  |  |  |
| CC(C)c1cccc(C(C)C)c1OC(=O)COC(=O)[C@H](C)N [Compound 4] | 94% | 100% | 100% | 100% | 100% | 100% | 100% | Immediate | 5 to 13 min | 1 to 2 min |  |  |  |  |  |  |  |  |
| CC(C)c1cccc([C@H](C)C2CC2)c1OC(=O)COC(=O)CN1CCCCC1.Cl [Compound 53] |  |  |  |  |  |  |  |  |  |  |  |  |  |  |  | Immediate | 5 to 8.5 min | 1 to 2 min |
| CC(C)c1cccc([C@H](C)C2CC2)c1OC(=O)COC(=O)CN1CCOCC1 [Compound 19] |  |  |  |  |  |  |  |  |  |  |  |  |  |  |  | Immediate | 5.5 to 9 min | 1 to 2 min |
| CC(C)c1cccc([C@H](C)C2CC2)c1OC(=O)COC(=O)CN1CCOCC1.Cl [Compound 17] | 55% | 63% | 78% | 85% | 100% | 100% | 100% |  |  |  |  |  |  |  |  | Immediate | 5.5 to 8 min | 1 to 2 min |
